Source: patent US11357800B2, “Compositions for the treatment of neuropathic pain and sensitization of tumors to chemotherapies” (Henry Ford Health System, priority 2016, dated 2022)
Read-outs that look alike come from different tables or passages of the source.

What was measured:
[1] = one randomized trial; cited from earlier work
[2] = in vivo; cited from earlier work
DRG neurons = assay: Axonal growth of DRG neurons in microfluidic device
Description: Primary rat DRG neurons were cultured in a microfluidic device that separates distal axons within the axonal compartment from their parent cell bodies within the cell body compartment as shown in FIG. 1 panel A. During 24 h culture, the neurons extended their axons to pass through a 450 nm long microgrooves, leading to only distal axons to grow into the axonal compartment (FIG. 1A). Oxaliplatin at various doses was applied into the axonal compartment (FIG. 1B).

[3] = system: miR-15b, miR-26a, miR-125b; conditions: tumor tissues
[4] = system: P-gp1, ABCC1, cleaved Caspase 3; conditions: tumor tissues
[5] = system: human colon carcinoma HCT-116; assay: Tumor cell viability, MTT assay, HCT-116; assay type: cell-based; conditions: read-out: IC50 cytotoxicity of oxaliplatin
Description: (§1) Tumor cell viability was measured using an MTT assay.

[6] = system: intraepidermal nerve fibers, sciatic nerve small fibers, DRG neurons; assay: Histology and TEM of footpad, sciatic nerve and DRG of tumor bearing mice; assay type: in vivo, mouse
Source text: Intraepidermal nerve fibers (IENFs) are sensory nerves that innervate dermis and epidermis. […] Calcitonin gene-related peptide (CGRP) DRG neurons are primary sensory neurons encoding heat and cold perception.

[7] = system: human ovarian carcinoma OVCAR3; assay: Tumor cell viability, MTT assay, OVCAR3; assay type: cell-based; conditions: read-out: IC50 cytotoxicity of oxaliplatin
Description: as §1

[8] = double immunofluorescent analysis

CNCCC=C1c2ccccc2CCc2ccccc21 [nortriptyline]
therapy of CIPN symptoms [1]: ineffective

Cc1c(C)c2c(c(C)c1O)CC[C@@](C)(CCC[C@H](C)CCC[C@H](C)CCCC(C)C)O2 [α-tocopherol]
antineuropathic effect on oxaliplatin-induced behavioral alterations [2]: about 50%

O=C1[O][Pt]2([NH][C@@H]3CCCC[C@H]3[NH]2)[O]C1=O [Oxaliplatin]
axonal growth inhibited (DRG neurons; oxaliplatin 3.6 nM (reduced concentration, IRF of 2.5)): 27% | axonal growth suppressed (DRG neurons; oxaliplatin 9.1 nM (regular dose)): 50% | IC50 (DRG neurons; read-out: Half Maximal Inhibitory Concentration, IC50, growth of axons, oxaliplatin applied into the axonal compartment, 24 h): 0.0091 µM | miR-15b level [3]: significantly reduced | miR-26a level [3]: significantly reduced | protein level of ABCC1 [4]: increased | protein level of P-gp1 [4]: increased | IC50 ([5]; HCT-116, with CEC derived exosomes (3×10^2 exosomes)): 6.9 ± 1 µM | IC50 ([5]; HCT-116, without CEC derived exosomes): 16.1 ± 2.1 µM | IEFN density assayed by the number of PGP9.5 positive fibers ([6]; dermal tissues of tumor bearing mice): significantly reduced | diameters of CGRP positive DRG neurons [6, 8]: selectively reduced | diameters of NF200 positive DRG neurons [6, 8]: reduced diameters of CGRP, but not NF200 positive neurons | IC50 ([7]; OVCAR3, with CEC derived exosomes (3×10^2 exosomes)): 2.3 ± 0.1 µM | IC50 ([7]; OVCAR3, without CEC derived exosomes): 6.5 ± 1.1 µM
